Patent US4151041A, “Process for production of maltopentaose and maltohexaose” (Meiji Seika Kaisha, Ltd., priority 1976, dated 1979)

Columns and labels:
Klebsiella pneumoniae = test: paper disc-plate method, combination with SF-1130-x1 substance; assay type: cell-based; conditions: in combination with SF-1130-x1, Klebsiella pneumoniae
[1] = in vitro antimicrobial / antibacterial activity (general statement); assay type: cell-based; conditions: for in vitro antimicrobial activity: in themselves
test microorganism = test: paper disc-plate method, test microorganisms in general; assay type: cell-based; conditions: for effect on antibacterial activity of the SF-1130-x2 substance: 1.25 mg/cc in upper plate layer, with SF-1130-x2; for antibacterial activity in themselves: alone, under the Table 4 testing conditions; for effect on antibacterial activity of the SF-1130-x1 substance: in combination with SF-1130-x1; for effect on antibacterial activity of the SF-1130-x substance: with SF-1130-x substance
Protocol: The test was conducted by a conventional paper disc-plate method. Thus, the SF-1130-x2 substance was dissolved in distilled water at a concentration of 1 mg/cc or 2 mg/cc, and with the test solutions so prepared were impregnated paper discs made of filter paper 8 mm in diameter which were subsequently air-dried. These paper discs were placed on an upper plate layer of the known mycin-assay incubation medium comprising 0.5% peptone, 0.3% meat extract and 1.5% agar (pH 6) which contained the test microorganism to be incubated therein and which was laid over the lower layer of agar medium in the assaying dish. The incubation was made at a temperature of 37° C. overnight, and subsequently the diameters of the inhibition zones formed around the paper discs were measured. These tests were repeated in the same manner as above but with the additional incorporation of 1.25 mg/cc of maltopentaose or maltohexaose into the upper plate layer of the micin-assay incubation medium. […] Control testing was also conducted in which the antibacterial potency of the SF-1130-x2 substance alone was estimated in the absence of maltopentaose or maltohexaose.

solubility = assay type: physicochemical
[2] = test system: mice infected with ascites tumor of "Sarcoma 180"; test: cellular immunity test according to the delayed skin reaction technique; assay type: in vivo, ICR-JCL mice (male); conditions: for adjuvant effect on immuno-potentiating activity of SF-1130-x substance: with SF-1130-x substance
Protocol: The test was carried out by the following procedure: A group of ICR-JCL mice (male) having an average body weight of 31.58±4g (8 weeks old) (six mice per group) were inoculated with ascites tumor of "Sarcoma 180". 24 hours after the inoculation of the tumor cells, each of the drug samples to be tested was subcutaneously administered once into the mice. Two days after the inoculation an ethanolic solution of 5% picryl chloride was applied to the hair-shaved abdomens of mice to establish the sensitization. Subsequently, each drug sample under test was subcutaneously administered once a day for four successive days. Nine days after the inoculation, a solution of 1% picryl chloride in olive oil was applied to the two sides of both ears of mice to establish the secondary sensitization. 24 hours after the secondary sensitization, the degree (%) of increase in thickness of the ears was evaluated for the test mice. The extent of the delayed skin reaction can be assessed from the percentage increase.

[3] = test system: Staphylococcus aureus Smith S-424; test: host-defense stimulation in JCL-ICR mice against bacterial infection (survival, LD50 of bacteria); assay type: in vivo; conditions: living animals
Protocol: The test was conducted as follows: The crude, yellowish brown powder obtained in Example 1 was reprecipitated from water-ethanol and the reprecipitate was dissolved in a phosphate-buffered saline at ph 7.2. The resultant solution containing a mixture of maltopentaose and maltohexaose was intraperitoneally administered into a group of JCL-ICR mice (male) having an average body weight of 20g (4 weeks old) (eight mice per group) at a dosage of 100 mg/kg body or 20 mg/kg body. The administration was effected three times at an interval of 48 hours.
72 hours after the final administration, the mice were intraperitoneally inoculated with 0.5 ml/mouse of a cell dispersion of Staphylococcus aureus Smith S-424 strain which had been prepared by dilution of the incubated culture with physiological saline solution followed by addition of 5% mucin. The number of the mice that survived was counted during five days after the inoculation and the LD50 value of the bacterial cells (the number of the bacterial cells necessary to kill 50% of mice) calculated in each case. Control testing was also conducted where the treatment with the mixture of maltopentaose and maltohexaose was omitted.

Row | SMILES | effect on antibacterial activity of the SF-1130-x1 substance (Klebsiella pneumoniae) | in vitro antibacterial activity [1] | in vitro antimicrobial activity [1] | effect on antibacterial activity of the SF-1130-x2 substance (test microorganism) | antibacterial activity in themselves (test microorganism) | effect on antibacterial activity of the SF-1130-x1 substance (test microorganism) | effect on antibacterial activity of the SF-1130-x substance (test microorganism) | solubility in acetone (solubility) | solubility in ethanol (solubility) | solubility in water (solubility) | Degree of increase in thickness (ears) ([2]; 200 mg/kg body, subcutaneous) | Percentage increase ([2]; 200 mg/kg body, subcutaneous, Control = 100.0) | adjuvant effect on immuno-potentiating activity of SF-1130-x substance [2] | effect on host-defense system against bacterial infection [3]
1 | OC[C@H]1O[C@H](O[C@H]2[C@H](O)[C@@H](O)[C@@H](O[C@H]3[C@H](O)[C@@H](O)[C@@H](O[C@H]4[C@H](O)[C@@H](O)[C@@H](O[C@H]5[C@H](O)[C@@H](O)[C@@H](O[C@H]6[C@H](O)[C@@H](O)C(O)O[C@@H]6CO)O[C@@H]5CO)O[C@@H]4CO)O[C@@H]3CO)O[C@@H]2CO)[C@H](O)[C@@H](O)[C@@H]1O (some centres unmarked) [maltohexaose] | improvement in the antibacterial activity is not observed | no in vitro antibacterial activity | no in vitro antimicrobial activity | improves the antibacterial activity | no antibacterial activity | generally improves the antibacterial activity | improving the antibacterial activity | insoluble | insoluble | readily soluble | 4.7 ± 0.988 ×10^ -3 cm | 87.0% | adjuvant effect of increasing the immuno-potentiating activity | may stimulate the host-defense system
2 | OC[C@H]1O[C@H](O[C@H]2[C@H](O)[C@@H](O)[C@@H](O[C@H]3[C@H](O)[C@@H](O)[C@@H](O[C@H]4[C@H](O)[C@@H](O)[C@@H](O[C@H]5[C@H](O)[C@@H](O)C(O)O[C@@H]5CO)O[C@@H]4CO)O[C@@H]3CO)O[C@@H]2CO)[C@H](O)[C@@H](O)[C@@H]1O (some centres unmarked) [maltopentaose] | improvement in the antibacterial activity is not observed | no in vitro antibacterial activity | no in vitro antimicrobial activity | improves the antibacterial activity | no antibacterial activity | generally improves the antibacterial activity | improving the antibacterial activity | insoluble | insoluble | readily soluble |  |  | adjuvant effect of increasing the immuno-potentiating activity | may stimulate the host-defense system
